Test: Crystallization rate of coenzyme Q10 in granule by differential scanning calorimetric analysis
Assay type: physicochemical
Conditions: DSC, calculated from melting heat (ΔH); 20° C.→80° C. (5° C./min)→−50° C.
Procedure: Calorimetric analysis of coenzyme Q10 granules obtained in Example 1 and Example 4 and oxidized coenzyme Q10 powder (Kaneka-coenzyme Q10) used as the starting material in Preparation Examples 1-3 by a differential scanning calorimetric analyzer (manufactured by SII; EXSTAR6000 DSC6220) was performed under the following conditions. The crystallization rate was calculated from the measurement value of the melting heat (ΔH).
Analysis conditions; 20° C.→80° C. (5° C./min)→−50° C. (−5° C./min)

COC1=C(OC)C(=O)C(C/C=C(\C)CC/C=C(\C)CC/C=C(\C)CC/C=C(\C)CC/C=C(\C)CC/C=C(\C)CC/C=C(\C)CC/C=C(\C)CC/C=C(\C)CCC=C(C)C)=C(C)C1=O [Kaneka coenzyme Q10, oxidized coenzyme Q10]
crystallinity degree: 100%
